pIC50, pKi: −log10 of the molar value. “And” between values parts separate entries of the source, which are not always exact repeats. Equal entries are not always repeated. Where two headings read alike, the source gives them in different places.
Molecular target: T1, His-tagged BCL-xL (Homo sapiens, UniProt Q07817)
T1 construct: purchased Sigma-Aldrich SRP0187
Test: AlphaScreen competitive binary binding, BCL-xL (biotin-BAD peptide)
Procedure: The reagents were diluted in a buffer containing 250 mM HEPES pH 7.5, 1 M NaCl, 1% BSA, and 0.05% Tween-80. His-tagged BCL-xL (0.5 nM, Cat. No. SRP0187, Sigma-Aldrich) or BCL-2 (1 nM, Cat. No. SRP0186, Sigma-Aldrich) were incubated with serial diluted 753a or 753b and 2 nM biotin-tagged BAD (biotin-[…] amino-terminal, AnaSpec, for BCL-xL) or 10 nM BIM peptides (biotin-[…] N-terminal, AnaSpec, for BCL-2) to a final volume of 40 µl in a 96-well PCR plate. […] After incubation for 2 h, 5 µl 6× His-acceptor beads (Cat. No. AL128M, PerkinElmer) were added to each well at 20 µg/ml final concentration and incubated for 1 h. Then 5 µl streptavidin-donor beads were added (Cat. No. 6760002, PerkinElmer) to each well at 20 µg/ml final concentration and incubated for 45 min. At the end of the incubation period, 17 µl of each sample was transferred in adjacent wells of 384-well proxy plate (Cat. No. 6008280, PerkinElmer). The plate was scanned using the Alpha program on Biotek’s Synergy Neo2 multimode plate reader. The inhibition constant (Ki) was calculated using the non-linear regression, one site, competitive binding, Fit Ki function on GraphPad Prism 9 software, based on experimentally determined dissociation constant (Kd) for each protein–peptide pair.

T1 sequence (Q07817 whole entry): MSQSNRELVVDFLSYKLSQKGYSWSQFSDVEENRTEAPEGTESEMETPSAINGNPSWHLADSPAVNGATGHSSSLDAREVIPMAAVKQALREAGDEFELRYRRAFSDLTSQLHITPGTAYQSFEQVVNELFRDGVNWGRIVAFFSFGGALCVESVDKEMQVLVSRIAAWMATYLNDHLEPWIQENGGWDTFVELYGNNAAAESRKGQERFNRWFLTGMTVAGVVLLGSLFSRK

Cc1ncsc1-c1ccc([C@H](C)NC(=O)[C@@H]2C[C@@H](O)CN2C(=O)[C@@H](NC(=O)CCCCCC(=O)N2CCN(CC[C@H](CSc3ccccc3)Nc3ccc(S(=O)(=O)NC(=O)c4ccc(N5CCN(CC6=C(c7ccc(Cl)cc7)CCC(C)(C)C6)CC5)cc4)cc3S(=O)(=O)C(F)(F)F)CC2)C(C)(C)C)cc1 [DT2216]
pIC50 (BCL-xL Rep-1): 6.92
pKi (BCL-xL Rep-1): 8.27
Alpha signal normalised to Maximum/Minimum (inhibition) (BCL-xL Rep-1, 0.000305176 uM, 0.000305176 µM): 20.1617
inhibition at 0.000305176 µM (BCL-xL Rep-1, 0.000305176 uM, read-out: Alpha signal normalised to Maximum/Minimum (inhibition)): 18.1%
Alpha signal normalised to Maximum/Minimum (inhibition) (BCL-xL Rep-1, 0.0012207 uM, 0.0012207 µM): 17.8409
inhibition at 0.0012207 µM (BCL-xL Rep-1, 0.0012207 uM, read-out: Alpha signal normalised to Maximum/Minimum (inhibition)): 21.3%
Alpha signal normalised to Maximum/Minimum (inhibition) (BCL-xL Rep-1, 0.00488281 uM, 0.00488281 µM): 23.949
inhibition at 0.00488281 µM (BCL-xL Rep-1, 0.00488281 uM, read-out: Alpha signal normalised to Maximum/Minimum (inhibition)): 23.9%
Alpha signal normalised to Maximum/Minimum (inhibition) (BCL-xL Rep-1, 0.0195312 uM, 0.0195312 µM): 38.2381
inhibition at 0.0195312 µM (BCL-xL Rep-1, 0.0195312 uM, read-out: Alpha signal normalised to Maximum/Minimum (inhibition)): 39%
Alpha signal normalised to Maximum/Minimum (inhibition) (BCL-xL Rep-1, 0.078125 uM, 0.078125 µM): 43.5761
inhibition at 0.078125 µM (BCL-xL Rep-1, 0.078125 uM, read-out: Alpha signal normalised to Maximum/Minimum (inhibition)): 42.3%
Alpha signal normalised to Maximum/Minimum (inhibition) (BCL-xL Rep-1, 0.3125 uM, 0.3125 µM): 88.5079
inhibition at 0.3125 µM (BCL-xL Rep-1, 0.3125 uM, read-out: Alpha signal normalised to Maximum/Minimum (inhibition)): 85.7%
Alpha signal normalised to Maximum/Minimum (inhibition) (BCL-xL Rep-1, 1.25 uM, 1.25 µM): 97.7177
inhibition at 1.25 µM (BCL-xL Rep-1, 1.25 uM, read-out: Alpha signal normalised to Maximum/Minimum (inhibition)): 96.9%
Alpha signal normalised to Maximum/Minimum (inhibition) (BCL-xL Rep-1, 5 uM, 5 µM): 99.5511
inhibition at 5 µM (BCL-xL Rep-1, 5 uM, read-out: Alpha signal normalised to Maximum/Minimum (inhibition)): 99.5%
Alpha signal (raw counts) (BCL-xL Rep-1, plate row B, 5 uM): 27230 and 26015
Alpha signal (raw counts) (BCL-xL Rep-1, plate row C, 1.25 uM): 64394 and 52279
Alpha signal (raw counts) (BCL-xL Rep-1, plate row D, 0.3125 uM): 224421 and 184214
Alpha signal (raw counts) (BCL-xL Rep-1, plate row E, 0.078125 uM): 846185 and 827887
Alpha signal (raw counts) (BCL-xL Rep-1, plate row F, 0.0195312 uM): 894074 and 904357
Alpha signal (raw counts) (BCL-xL Rep-1, plate row G, 0.00488281 uM): 1110366 and 1109056
Alpha signal (raw counts) (BCL-xL Rep-1, plate row H, 0.0012207 uM): 1147150 and 1196559
Alpha signal (raw counts) (BCL-xL Rep-1, plate row I, 0.000305176 uM): 1192890 and 1163311
Alpha signal (raw counts) (BCL-xL Rep-1, plate row J, 7.62939e-5 uM): 1153277 and 1055277
Alpha signal (raw counts) (BCL-xL Rep-1, plate row K, 1.90735e-5 uM): 1140776 and 1328684
Alpha signal (raw counts) (BCL-xL Rep-2, 7.62939e-5 uM): 1377571 and 1338961
Alpha signal normalised to Maximum/Minimum (inhibition) (BCL-xL Rep-2, 0.0012207 uM, 0.0012207 µM): 12.2985
inhibition at 0.0012207 µM (BCL-xL Rep-2, 0.0012207 uM, read-out: Alpha signal normalised to Maximum/Minimum (inhibition)): 16.2%
Alpha signal normalised to Maximum/Minimum (inhibition) (BCL-xL Rep-2, 0.00488281 uM, 0.00488281 µM): 25.1578
inhibition at 0.00488281 µM (BCL-xL Rep-2, 0.00488281 uM, read-out: Alpha signal normalised to Maximum/Minimum (inhibition)): 22.8%
Alpha signal normalised to Maximum/Minimum (inhibition) (BCL-xL Rep-2, 0.0195312 uM, 0.0195312 µM): 25.456
inhibition at 0.0195312 µM (BCL-xL Rep-2, 0.0195312 uM, read-out: Alpha signal normalised to Maximum/Minimum (inhibition)): 35.3%
Alpha signal normalised to Maximum/Minimum (inhibition) (BCL-xL Rep-2, 0.078125 uM, 0.078125 µM): 57.5037
inhibition at 0.078125 µM (BCL-xL Rep-2, 0.078125 uM, read-out: Alpha signal normalised to Maximum/Minimum (inhibition)): 60.5%
Alpha signal normalised to Maximum/Minimum (inhibition) (BCL-xL Rep-2, 0.3125 uM, 0.3125 µM): 86.3518
inhibition at 0.3125 µM (BCL-xL Rep-2, 0.3125 uM, read-out: Alpha signal normalised to Maximum/Minimum (inhibition)): 86.5%
Alpha signal normalised to Maximum/Minimum (inhibition) (BCL-xL Rep-2, 1.25 uM, 1.25 µM): 97.814
inhibition at 1.25 µM (BCL-xL Rep-2, 1.25 uM, read-out: Alpha signal normalised to Maximum/Minimum (inhibition)): 98.7%
Alpha signal normalised to Maximum/Minimum (inhibition) (BCL-xL Rep-2, 5 uM, 5 µM): 100.647
inhibition at 5 µM (BCL-xL Rep-2, 5 uM, read-out: Alpha signal normalised to Maximum/Minimum (inhibition)): 100%
Alpha signal (raw counts) (BCL-xL Rep-2, plate row B, 5 uM): 20174 and 14292
Alpha signal (raw counts) (BCL-xL Rep-2, plate row C, 1.25 uM): 40445 and 53326
Alpha signal (raw counts) (BCL-xL Rep-2, plate row D, 0.3125 uM): 209031 and 211248
